Experimental data taken from patent publication US8802723B2, “Metabolic syndrome-improving agent and medicine, supplement, functional food and food additive containing the same” (ARKRAY, Inc., priority 2005, dated 2014).

Tested on: VLDL secretion in HepG2 cells
Assay: VLDL secretion inhibition experiment in HepG2 cells (apoB100 ELISA)
Format: cell-based, human
Conditions: for VLDL secretion ratio (%): HepG2, 30 hours, measurement group/control group, control (DMSO) = 100, average ± standard error
Method: FCS, a non-essential amino acid, sodium pyruvate and a glutamine solution were mixed such that the final concentrations of the FCS, the non-essential amino acid, the sodium pyruvate and the glutamine solution respectively were 10%, 1%, 1 mM and 2 mM, and added to an MEM medium (manufactured by SIGMA). They were mixed aseptically on a clean bench. In a 100 mm/Collagen-Coated Dish (trade name, manufactured by Iwaki Glass Works, Co.), the medium of HepG2 cells (human hepatic cells) that had been cultured to 80% to 90% confluence was removed with a pipette and washed with 2 mL of 1×PBS. After adding 2 mL of trypsin-EDTA and rotating the above-noted dish slowly so that trypsin-EDTA spread over the entire cells, this trypsin-EDTA was removed with a pipette. The dish was allowed to stand still for 15 minutes in a CO2 incubator (37° C., 5%), and then 4 mL of a growth medium was added to this dish, followed by mixing by pipetting. Then, 2 mL of this mixture was added to each of two dishes to which 3 mL of a growth medium was added in advance. These dishes were covered with lids and moved crisscross so as to mix the content. The cells were checked using a microscope (manufactured by Olympus Corporation) and cultured in a CO2 incubator (37° C., 5%). Three or four days later, after checking that 80% to 90% confluence was achieved using the microscope, subculture was carried out in a similar manner, followed by cell culture.
First, a VLDL standard solution was prepared. The VLDL standard solution was prepared by diluting 1.169 mg/mL of human VLDL standard (trade name, manufactured by CHEMICON International, Inc.) with a growth medium. The dilution factors were 100, 1000, 10000, 100000 and 1000000.
A sandwich ELISA that recognized human […] in the VLDL as an antigen was used. First, 100 μL of Moab×LDL Apolipoprotein B (ApoB) (manufactured under MONOSAN®) was dispensed in each well of ELISA PLATE, and the plate was sealed with a sterile seal and then allowed to stand still at 4° C. overnight. In the following, all the dispensing mentioned is for a single well. On the next day, 200 μL of Zepto Block (trade name, manufactured by ZeptoMetrix Corporation) was dispensed, and then the above-noted plate was sealed and allowed to stand still for 2 hours at room temperature for blocking. Subsequently, 100 μL of the medium and the VLDL standard solution were dispensed, and then the above-noted plate was sealed and allowed to stand still for 1 hour at room temperature. Washing with 200 μL of PBST and absorption using an aspirator were carried out five times in total. […] 100 μL of 1M phosphoric acid solution was added to the above-noted mixture solution, and the absorbance at 450 nm was measured using wallac ARVOsx (trade name, PerkinElmer Life Sciences, PerkinElmer, Inc.). […]

CC(C)=CCC/C(C)=C/COc1ccc2ccc(=O)oc2c1 [Aurapten, aurapten]
effect on VLDL secretion (in words) (10-50 μM, degree of inhibition increased as concentration rose): VLDL secretion was inhibited
VLDL secretion ratio (%) (aurapten 10 μM): 63.1 ± 5.31%
VLDL secretion ratio (%) (aurapten 20 μM): 61.6 ± 2.21%
VLDL secretion ratio (%) (aurapten 50 μM): 45.6 ± 4.04%
